Here are results for six molecules from patent US20260374739A1, “SMALL MOLECULAR WEIGHT CHEMICAL COMPOUND TO ANTAGONIZE EPH-EPHRIN TETRAMERIZATION AND INHIBIT BIDIRECTIONAL SIGNALING” (THE BOARD OF REGENTS OF THE UNIVERSITY OF TEXAS SYSTEM, priority 2022, published 2026).

SMILES strings stand for the structures. “Also recorded” adds a separate entry of the source.

Assay [1] has as its system CFA-induced thermal pain in mice. Briefly: CFA inflammatory pain, thermal. It is filed as in vivo, mouse. The method, then: A total of five wildtype (WT) male mice were injected IP with A20 free base (3 mice at 10 mg/kg and 2 mice at 20 mg/kg in 6% DMSO/94% sunflower seed oil, data is pooled) and three WT males with vehicle (V) only as control. As indicated, injections of A20 or V started two days prior to the single injection of CFA into one of the two hind paws to initiate inflammatory pain, and injections continued for two additional days. For each day's examination of withdrawal latency, both left and right hind paws were subjected to 6-12 thermal pain measurements to obtain an average response time for each mouse. Mice were at 14 weeks age when experiment started.
Wildtype (WT) female mice were injected IP with either A20 free base (20 mg/kg in 6% DMSO/94% sunflower seed oil), with MCD kinase inhibitor (10 mg/kg in PBS), or vehicle only (6% DMSO/94% sunflower seed oil). Injections of A20, MCD, or V started two days prior to a single injection of CFA into one of the two hind paws to initiate inflammatory pain, and injections continued for two additional days. For each day's examination of withdrawal latency, both left and right hind paws were subjected to 6-12 thermal pain measurements to obtain an average response time, and for each mouse the average of the uninjured hind paw response time was divided by the average of the injured side response time to obtain a pain response ratio for each mouse which was then plotted and subjected to indicated statistical analysis. Data shown were those obtained at day +3 post-CFA. Mice were at 20 weeks age when experiment started.
FIG. 63 depicts tests of salt versions of compounds A20 and QPB4-Bn showing both are effective at reducing inflammatory pain when injected after the pain-generating insult and when using PBS as the vehicle. Wild-type (WT) male and female mice were injected IP with either A20.2×HCl salt (20 mg/kg in PBS), QPB4-Bn·2×HCl salt (20 mg/kg in PBS), or vehicle only (PBS). Here, the first injection of A20, QPB4-Bn, or V started 15 minutes after CFA was injected into one of the two hind paws to initiate inflammatory pain, and injections continued every 12 hours for three additional days. For each day's examination of withdrawal latency, both left and right hind paws were subjected to 6-12 thermal pain measurements to obtain an average response time, and for each mouse the average of the uninjured hind paw response time was divided by the average of the injured side response time to obtain a pain response ratio for each mouse which was then plotted and subjected to indicated statistical analysis. Data shown were those obtained at day +3 post-CFA. Mice were at 8 weeks age when experiment started.
FIG. 64 depicts tests of two more A20 analogs, salt forms of QPB4 and QPP (QPP127) show both are effective at reducing inflammatory pain when injected after the pain-generating insult and when using PBS as the vehicle. Wild-type (WT) female mice were injected IP with QPB4.2×HCl salt (20 mg/kg in PBS), QPP (QPP127)·2×HCl salt (20 mg/kg in PBS), or vehicle only (PBS). Here, the first injection of QPB4, QPP (QPP127), or vehicle started 15 minutes after CFA was injected into one of the two hind paws to initiate inflammatory pain, and injections continued every 12 hours for three additional days. For each day's examination of withdrawal latency, both left and right hind paws were subjected to 6-12 thermal pain measurements to obtain an average response time, and for each mouse the average of the uninjured hind paw response time was divided by the average of the injured side response time to obtain a pain response ratio for each mouse which was then plotted and subjected to indicated statistical analysis. Data shown were those obtained at day +3 post-CFA. Mice were at 12 weeks age when experiment started.
A20 was therefore tested in 14-week-old CD1 mice for enhanced thermal sensitivity induced by CFA. […]

For assay [2], the system named is Zymosan-induced thermal pain in mice. Briefly: Zymosan inflammatory pain, thermal. In kind it is in vivo, mouse. Conditions: PO; for thermal pain ratio: A20 experiment vehicle close to 6. The protocol:
An alternative and potentially faster pain model using Zymosin (an inflammatory agent like CFA) to induce inflammatory pain was tested. […] Mice were first acclimated to the pain testing set ups and then subjected to baseline mechanical and thermal pain measurements. Early in the morning the following day, the left hind paws were injected subcutaneously with 30 μL of Zymosan (5 mg/ml in PBS; Z4250, Sigma-Aldrich). Two hours after the Zymosan injection, the left hind paws were assessed for thermal pain using Hargreaves device (2-4 hr), and then left paws tested for mechanical pain using VF filaments (4-6 hr), and then again for thermal pain (6-8 hr). Data from two independent experiments were pooled to increase the n values for the three different genotypes. […] Thermal pain increased in all group following Zymosan injury as indicated by a decreased average response time to the infrared heat source in all animals assessed, and the level of pain intensified from the 2-4 hr testing period to the 6-8 hr period.
Inflammatory pain was induced by subcutaneous injection of 30 μl of 5 mg/ml Zymosan into the right hind paws of 12 wild-type adult male mice (5-6 months age, 129×1/SvJ background) that in previous days were acclimated to the testing chambers and assessed to obtain baseline pain measurements. After 15 min, mice were orally dosed with either vehicle only (97% PBS/3% DMSO) or with 20, 10, or 5 mg/kg of A20 (2×·HCl salt in vehicle), 3 mice for each condition. Two hours after Zymosan injection, the right hind paws were assessed for thermal pain using Hargreaves device (2-4 hr), then mice were orally dosed again with vehicle only or A20 chemicals, and then right paws tested for mechanical pain using VF filaments (4-6 hr), and then again for thermal pain (6-8 hr).
Inflammatory pain was induced by subcutaneous injection of 30 μl of 5 mg/ml Zymosan into the left hind paws of 9 wild-type adult males (5-6 months age, 129/CD1 mixed background) that in previous days were acclimated to the testing chambers and assessed to obtain baseline pain measurements. After 15 min, mice were orally dosed with either vehicle only (97% PBS/3% DMSO) or with 20 mg/kg of 3511-I (2×·HCl salt in vehicle), or 20 mg/kg BQPB4 (3×·HCl salt in 97% sunflower seed oil/3% DMSO), 3 mice for each condition. Two hours after Zymosan injection, the left […] hind paws were assessed for mechanical pain using VF filaments (2-4 hr), then mice were orally dosed again with vehicle only or A20 chemicals, and then left hind paws tested for thermal pain using Hargreaves device (4-6 hr), and then again for mechanical pain (6-8 hr).
Inflammatory pain was induced by subcutaneous injection of Zymosan into left hind paws, followed 15 min later with an oral dose of either vehicle or 20, 10, or 5 mg/kg of BQPB4 (3×·HCl salt in 97% sunflower seed oil/3% DMSO). Two hours after Zymosan injection, the left hind paws were assessed for mechanical pain using VF filaments (2-4 hr), then mice were orally dosed again with vehicle or BQPB4 chemical, and then hind paws tested for thermal pain using Hargreaves device (4-6 hr), and then tested again for mechanical pain (6-8 hr). […] Calculation of pain ratios confirmed the significant dose-dependent effects of BQPB4 at blunting thermal pain (FIG. 92B).

For `Oc1c(Br)cc(CN2CCOCC2)c2cccnc12` [Compound 5, 7-bromo-5-(morpholinomethyl)quinolin-8-ol], the thermal pain ratio in assay [1] (IP or PO 20 mg/kg, vehicle 4 or above) is less than 2; in assay [2] it was “around 3”. The “thermal pain” value was “remarkably blunted; also recorded: appears to be a more effective agent” in assay [1] (IP, dosing started two days before CFA, listed as A20); “ability to blunt the enhanced sensitivity produced by the inflammatory pain insult; also recorded: reduced sensitivity to the infrared heat source compared to the vehicle treated mice” in assay [1] (dosed after CFA, listed as A20); “significant reductions in both mechanical and thermal pain” in assay [2].
As to `Oc1ccc(CN2CCN(c3ccc(Br)cc3)CC2)c2cccnc12` [Compound 26, 5-((4-(4-bromophenyl)piperazin-1-yl)methyl)quinolin-8-ol], the “thermal pain” value in assay [1] (dosed after CFA) is on record as “ability to blunt the enhanced sensitivity produced by the inflammatory pain insult”.
For the molecule `Oc1c(Br)cc(CN2CCN(c3ccc(Br)cc3)CC2)c2cccnc12` [Compound 28, 7-bromo-5-((4-(4-bromophenyl)piperazin-1-yl)methyl)quinolin-8-ol], in assay [2], the thermal pain ratio entry was “below 2”. Besides, in assay [2] (listed as BQPB4), the “thermal pain” value is “significantly less thermal pain; also recorded: the 20 mg/kg dose produced the strongest and most significant reduction in pain, followed by the 10 mg/kg dose, and then the 5 mg/kg dose”.
`Oc1ccc(CN2CCN(c3ccc(Br)cn3)CC2)c2cccnc12` [Compound 33, 5-((4-(5-bromopyridin-2-yl)piperazin-1-yl)methyl)quinolin-8-ol]: in assay [1] (dosed after CFA), the “thermal pain” value is listed as “ability to blunt the enhanced sensitivity produced by the inflammatory pain insult”.
On the same count and under the same terms, then `Oc1ccc(CN2CCN(Cc3ccc(Br)cc3)CC2)c2cccnc12` [Compound 42, 5-((4-(4-bromobenzyl)piperazin-1-yl)methyl)quinolin-8-ol], with “ability to blunt the enhanced sensitivity produced by the inflammatory pain insult”.
For `COc1ccccc1N1CCN(Cc2cc(I)c(O)c3ncccc23)CC1` [Compound 71, 7-iodo-5-((4-(2-methoxyphenyl)piperazin-1-yl)methyl)quinolin-8-ol], in assay [2], the “thermal pain” value is recorded as “significantly less thermal pain” and the thermal pain ratio is listed as roughly 3.
